Laboratory results as given in patent US20260069584A1, “METHODS OF TREATING CHRONIC MYELOID LEUKEMIA USING THE TYROSINE KINASE INHIBITOR VODOBATINIB” (Sun Pharma Advanced Research Company Ltd., priority 2022, published 2026).

Test system: AP CML, BP CML and Ph+ ALL
Test: Part B: disease response in AP CML, BP CML and Ph+ ALL subjects
Type: in vivo, human
Description: This was a Phase I/2, open-label, single-agent, multicenter, multi-dose, dose-escalation study in subjects with Philadelphia chromosome-positive Ph+ CML (CP CML, AP CML and BP CML) and Ph+ ALL. The primary objectives of this study were to determine the maximum tolerated dose (MTD; or recommended Phase 2 dose [RP2D]) of the compound of Formula I when administered orally and to evaluate its safety.
In this study, the dose-escalation cohort started with an accelerated titration study design (ATD) and shifted to a 3±3 design when subjects in the preceding ATD cohort experienced either grade 2 or higher adverse events (AEs) or dose-limiting toxicity (DLT) during Cycle 1 that was not clearly and incontrovertibly related to the underlying disease or concomitant medications. The DLT period consisted of 28 days (Cycle 1). Subjects experiencing DLTs were managed with dose delays and/or discontinuation and continued in the study until disease progression. Decisions to advance to a succeeding dose level occurred after the evaluation of safety and tolerability data for a given dose level.
Accordingly, the eligible subjects were treated in 4-week cycles of once daily self-administration of the compound of Formula I. The administration was after an overnight fast, or after maintaining approximately 2 hours of fasting before and after the dosing in all cycles.
For the cohorts, where the 3±3 design applies, 3 subjects were enrolled initially. If 2 of these subjects experienced a Grade 2 or more toxicity (that was not clearly and incontrovertibly related to the underlying disease or concomitant medications), subsequent cohorts were escalated according to smaller increments. Further, if there were no DLTs in the first 3 subjects, dose escalation to the next higher dose level was allowed to proceed. If 1 of the 3 subjects experienced a DLT, that dose level was expanded to 6 subjects (3 additional subjects were enrolled). If 2 subjects at a given dose level experienced a DLT, the MTD was considered to have been exceeded. The next lower dose level was expanded to 6 subjects, or if 6 subjects had already been enrolled and no more than 1 of the 6 subjects experienced a DLT, then this lower dose level was considered the MTD. Additional subjects were enrolled in dose escalation cohorts for further assessment of safety and efficacy of the compound of Formula 1 at doses that were tolerated (i.e., doses that have <2 DLTs in 6 enrolled subjects or <1 DLT in 3 enrolled subjects). Thus 204 mg was arrived at as MTD. A subject experiencing a DLT was allowed to continue therapy with a reduced dose. Subjects who experienced a DLT and recovered were treated at the next lower dose level until disease progression or other events requiring further dose reduction existed. For cohorts at Dose Level 2 or higher, a further dose reduction (i.e., up to 2 levels lower than their originally assigned dose) was implemented in the case of a further DLT or other non-DLT events requiring a dose reduction, if and when the event leading to dose reduction returned to Grade 1 or lower in severity. The reduced dose was re-escalated to the original or higher dose (i.e., the dose for which safety had been established in the dose escalation cohort) considering subject safety and response to the compound of Formula I. The subject was discontinued from treatment using the compound of Formula I, if dose reduction below 48 mg was required.
The study was conducted over a period of 60 months (5 years) which was divided in 28-days cycle. In the first two cycles, the dose administration was started on day 1 and the subject's assessments were performed on day 1, day 2, day 3, day 8, day 15 and day 22. From Cycle 3 onwards, the assessments were performed every 3 months (i.e., on day 28 of Cycle 3, followed by day 28 of Cycle 6 which was further followed by day 28 of Cycle 9). […]

Cc1ccc(C(=O)NNC(=O)c2c(C)cccc2Cl)cc1C#Cc1cnc2ccccc2c1 [compound of Formula I, N′-(2-chloro-6-methylbenzoyl)-4-methyl-3-[2-(3-quinolyl)ethynyl]-benzohydrazide]
Best Cytogenetic Response: Complete Response (24 mg (N = 1) ESC): 1(100)
Best Cytogenetic Response: Major Cytogenetic Response (24 mg (N = 1) ESC): 1(100)
Best Cytogenetic Response: Minimal Response (24 mg (N = 1) ESC): 0
Best Cytogenetic Response: Minor Response (24 mg (N = 1) ESC): 0
Best Cytogenetic Response: No Response (24 mg (N = 1) ESC): 0
Best Cytogenetic Response: Partial Response (24 mg (N = 1) ESC): 0
Best Hematologic Response: Complete Response (24 mg (N = 1) ESC): 1(100)
Best Hematologic Response: Major Hematologic Response (24 mg (N = 1) ESC): 1(100)
Best Hematologic Response: No Evidence of Leukemia (24 mg (N = 1) ESC): 0
Best Hematologic Response: No Response (24 mg (N = 1) ESC): 0
Best Molecular Response: Complete Response (24 mg (N = 1) ESC): 0
Best Molecular Response: Major Response (24 mg (N = 1) ESC): 1(100)
Best Molecular Response: No Response (24 mg (N = 1) ESC): 0
Best Cytogenetic Response: Complete Response (48 mg (N = 3) ESC): 2(66.7)
Best Cytogenetic Response: Major Cytogenetic Response (48 mg (N = 3) ESC): 2(66.7)
Best Cytogenetic Response: Minimal Response (48 mg (N = 3) ESC): 0
Best Cytogenetic Response: Minor Response (48 mg (N = 3) ESC): 0
Best Cytogenetic Response: No Response (48 mg (N = 3) ESC): 1(33.3)
Best Cytogenetic Response: Partial Response (48 mg (N = 3) ESC): 0
Best Hematologic Response: Complete Response (48 mg (N = 3) ESC): 3(100)
Best Hematologic Response: Major Hematologic Response (48 mg (N = 3) ESC): 3(100)
Best Hematologic Response: No Evidence of Leukemia (48 mg (N = 3) ESC): 0
Best Hematologic Response: No Response (48 mg (N = 3) ESC): 0
Best Molecular Response: Complete Response (48 mg (N = 3) ESC): 1(33.3)
Best Molecular Response: Major Response (48 mg (N = 3) ESC): 1(33.3)
Best Molecular Response: No Response (48 mg (N = 3) ESC): 2(66.7)
Best Cytogenetic Response: Complete Response (90 mg (N = 1) ESC): 1(100)
Best Cytogenetic Response: Major Cytogenetic Response (90 mg (N = 1) ESC): 1(100)
Best Cytogenetic Response: Minimal Response (90 mg (N = 1) ESC): 0
Best Cytogenetic Response: Minor Response (90 mg (N = 1) ESC): 0
Best Cytogenetic Response: No Response (90 mg (N = 1) ESC): 0
Best Cytogenetic Response: Partial Response (90 mg (N = 1) ESC): 0
Best Hematologic Response: Complete Response (90 mg (N = 1) ESC): 1(100)
Best Hematologic Response: Major Hematologic Response (90 mg (N = 1) ESC): 1(100)
Best Hematologic Response: No Evidence of Leukemia (90 mg (N = 1) ESC): 0
Best Hematologic Response: No Response (90 mg (N = 1) ESC): 0
Best Molecular Response: Complete Response (90 mg (N = 1) ESC): 1(100)
Best Molecular Response: Major Response (90 mg (N = 1) ESC): 1(100)
Best Molecular Response: No Response (90 mg (N = 1) ESC): 0
Best Cytogenetic Response: Complete Response (126 mg (N = 3) ESC): 0
Best Cytogenetic Response: Major Cytogenetic Response (126 mg (N = 3) ESC): 0
Best Cytogenetic Response: Minimal Response (126 mg (N = 3) ESC): 0
Best Cytogenetic Response: Minor Response (126 mg (N = 3) ESC): 1(33.3)
Best Cytogenetic Response: No Response (126 mg (N = 3) ESC): 1(33.3)
Best Cytogenetic Response: Partial Response (126 mg (N = 3) ESC): 0
Best Hematologic Response: Complete Response (126 mg (N = 3) ESC): 0
Best Hematologic Response: Major Hematologic Response (126 mg (N = 3) ESC): 0
Best Hematologic Response: No Evidence of Leukemia (126 mg (N = 3) ESC): 0
Best Hematologic Response: No Response (126 mg (N = 3) ESC): 1(33.3)
Best Molecular Response: Complete Response (126 mg (N = 3) ESC): 0
Best Molecular Response: Major Response (126 mg (N = 3) ESC): 0
Best Molecular Response: No Response (126 mg (N = 3) ESC): 2(66.7)
maintained CCyR and MMR (2 Ph+ ALL pts): 1 pt
CCyR with MMR (3 AP CML patients): 1 patient
PCyR (3 AP CML patients): 2 patients
complete hematological response (CHR) (4 BP CML patients): 2 patients
disease progression as best response (4 BP CML patients): 2 patients
Best Cytogenetic Response: Complete Response (66 ang (N = 3) ESC): 2(66.7)
Best Cytogenetic Response: Minor Response (66 ang (N = 3) ESC): 0
Best Cytogenetic Response: No Response (66 ang (N = 3) ESC): 0
Best Hematologic Response: Complete Response (66 ang (N = 3) ESC): 0
Best Hematologic Response: Major Hematologic Response (66 ang (N = 3) ESC): 2(66.7)
Best Hematologic Response: No Response (66 ang (N = 3) ESC): 1(33.3)
Best Molecular Response: Major Response (66 ang (N = 3) ESC): 1(33.3)
Best Molecular Response: No Response (66 ang (N = 3) ESC): 2(66.7)
Best Cytogenetic Response: Major Cytogenetic Response ((N = 3) ESC): 3(100)
Best Cytogenetic Response: Minimal Response ((N = 3) ESC): 0
Best Cytogenetic Response: Partial Response ((N = 3) ESC): 1(33.3)
Best Hematologic Response: No Evidence of Leukemia ((N = 3) ESC): 2(66.7)
Best Molecular Response: Complete Response ((N = 3) ESC): 1(33.3)
Best Cytogenetic Response: Complete Response (Total ESC): 6(54.5)
Best Cytogenetic Response: Major Cytogenetic Response (Total ESC): 7(63.6)
Best Cytogenetic Response: Minimal Response (Total ESC): 0
Best Cytogenetic Response: Minor Response (Total ESC): 1(9.1)
Best Cytogenetic Response: No Response (Total ESC): 2(18.2)
Best Cytogenetic Response: Partial Response (Total ESC): 1(9.1)
Best Hematologic Response: Complete Response (Total ESC): 5(45.5)
Best Hematologic Response: Major Hematologic Response (Total ESC): 7(63.6)
Best Hematologic Response: No Evidence of Leukemia (Total ESC): 2(18.2)
Best Hematologic Response: No Response (Total ESC): 2(18.2)
Best Molecular Response: Complete Response (Total ESC): 3(27.3)
Best Molecular Response: Major Response (Total ESC): 4(36.4)
Best Molecular Response: No Response (Total ESC): 6(54.5)
